From ChEMBL document CHEMBL1201862, “PubChem BioAssay data set” (2004)
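How tested: cells in 96-well plates exposed to compound for 48 hours at five concentrations. GI50: concentration for 50% inhibition of growth.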 Calls of active or inactive are those of the source. Rule as the data show it: active = GI50 up to about 1.1 µM and inactive = higher.

Legend:
Assay in all cases: NCI tumour cell line growth inhibition, 48 h
786-0 = tested on: 786-0
HOP-62 = tested on: HOP-62
ACHN = tested on: ACHN
T47D = tested on: T47D
Hs-578T = tested on: Hs-578T
COLO 205 = tested on: COLO 205
SF-539 = tested on: SF-539
MOLT-4 = tested on: MOLT-4
UACC-257 = tested on: UACC-257
M14 = tested on: M14
IGROV-1 = tested on: IGROV-1
A498 = tested on: A498
NCI/ADR-RES = tested on: NCI/ADR-RES
SNB-75 = tested on: SNB-75
NCI-H23 = tested on: NCI-H23
HCC 2998 = tested on: HCC 2998
BT-549 = tested on: BT-549
RPMI-8226 = tested on: RPMI-8226
SK-MEL-28 = tested on: SK-MEL-28
K562 = tested on: K562
CCRF-CEM = tested on: CCRF-CEM
SNB-19 = tested on: SNB-19
U-251 = tested on: U-251
RXF 393 = tested on: RXF 393
CAKI-1 = tested on: CAKI-1
MDA-MB-435 = tested on: MDA-MB-435
UO-31 = tested on: UO-31
HL-60 = tested on: HL-60
HT-29 = tested on: HT-29
SR = tested on: SR
OVCAR-5 = tested on: OVCAR-5
SK-MEL-2 = tested on: SK-MEL-2
SF-268 = tested on: SF-268
SK-OV-3 = tested on: SK-OV-3
HCT-116 = tested on: HCT-116
EKVX = tested on: EKVX
NCI-H522 = tested on: NCI-H522
LOX IMVI = tested on: LOX IMVI
NCI-H460 = tested on: NCI-H460
SW-620 = tested on: SW-620
KM12 = tested on: KM12
A549 = tested on: A549
HOP-92 = tested on: HOP-92
NCI-H226 = tested on: NCI-H226
MDA-MB-231 = tested on: MDA-MB-231
SF-295 = tested on: SF-295
PC-3 = tested on: PC-3
SK-MEL-5 = tested on: SK-MEL-5
UACC-62 = tested on: UACC-62
SN12C = tested on: SN12C
MDA-N = tested on: MDA-N
DU-145 = tested on: DU-145
OVCAR-3 = tested on: OVCAR-3
OVCAR-4 = tested on: OVCAR-4
MCF7 = tested on: MCF7
Malme-3M = tested on: Malme-3M
HCT-15 = tested on: HCT-15
OVCAR-8 = tested on: OVCAR-8
TK-10 = tested on: TK-10

CCOC(=O)C(NC(=O)Nc1ccc(C)cc1)(OCC)C(F)(F)F (stereo not drawn)
GI50 (786-0): > 100 µM (inactive)
GI50 (HOP-62): 26.5 µM (inactive)
GI50 (ACHN): 56.5 µM (inactive)
GI50 (T47D): > 100 µM (inactive)
GI50 (Hs-578T): 71.4 µM (inactive)
GI50 (COLO 205): > 100 µM (inactive)
GI50 (SF-539): > 100 µM (inactive)
GI50 (MOLT-4): > 100 µM (inactive)
GI50 (UACC-257): > 100 µM (inactive)
GI50 (M14): > 100 µM (inactive)
GI50 (IGROV-1): > 100 µM (inactive)
GI50 (A498): 53.8 µM (inactive)
GI50 (NCI/ADR-RES): 42.3 µM (inactive)
GI50 (SNB-75): > 100 µM (inactive)
GI50 (NCI-H23): > 100 µM (inactive)
GI50 (HCC 2998): > 100 µM (inactive)
GI50 (BT-549): > 100 µM (inactive)
GI50 (RPMI-8226): > 100 µM (inactive)
GI50 (SK-MEL-28): > 100 µM (inactive)
GI50 (K562): > 100 µM (inactive)
GI50 (CCRF-CEM): > 100 µM (inactive)
GI50 (SNB-19): > 100 µM (inactive)
GI50 (U-251): > 100 µM (inactive)
GI50 (RXF 393): > 100 µM (inactive)
GI50 (CAKI-1): 1.18 µM (inactive)
GI50 (MDA-MB-435): > 100 µM (inactive)
GI50 (UO-31): 54.1 µM (inactive)
GI50 (HL-60): 64.4 µM (inactive)
GI50 (HT-29): > 100 µM (inactive)
GI50 (SR): 88.9 µM (inactive)
GI50 (OVCAR-5): > 100 µM (inactive)
GI50 (SK-MEL-2): > 100 µM (inactive)
GI50 (SF-268): > 100 µM (inactive)
GI50 (SK-OV-3): > 100 µM (inactive)
GI50 (HCT-116): > 100 µM (inactive)

Cc1cc2ccccc2oc(=O)/c1=N\Nc1ccccc1
GI50 (EKVX): 37.2 µM (inactive)
GI50 (786-0): 25.6 µM (inactive)
GI50 (NCI-H522): 65.5 µM (inactive)
GI50 (HOP-62): 19.3 µM (inactive)
GI50 (ACHN): 22.6 µM (inactive)
GI50 (COLO 205): > 100 µM (inactive)
GI50 (SF-539): 37.8 µM (inactive)
GI50 (MOLT-4): > 100 µM (inactive)
GI50 (LOX IMVI): 60.1 µM (inactive)
GI50 (UACC-257): > 100 µM (inactive)
GI50 (M14): > 100 µM (inactive)
GI50 (NCI-H460): 70 µM (inactive)
GI50 (IGROV-1): 25.8 µM (inactive)
GI50 (A498): > 100 µM (inactive)
GI50 (NCI/ADR-RES): 32.3 µM (inactive)
GI50 (SW-620): 23 µM (inactive)
GI50 (KM12): 58.2 µM (inactive)
GI50 (SNB-75): 20.9 µM (inactive)
GI50 (NCI-H23): 78.5 µM (inactive)
GI50 (A549): 74.3 µM (inactive)
GI50 (HCC 2998): > 100 µM (inactive)
GI50 (HOP-92): 73.8 µM (inactive)
GI50 (NCI-H226): 47.9 µM (inactive)
GI50 (MDA-MB-231): 25.6 µM (inactive)
GI50 (SF-295): 32.6 µM (inactive)
GI50 (BT-549): 78.9 µM (inactive)
GI50 (RPMI-8226): > 100 µM (inactive)
GI50 (PC-3): 62.7 µM (inactive)
GI50 (SK-MEL-5): 84.1 µM (inactive)
GI50 (UACC-62): 19.2 µM (inactive)
GI50 (SK-MEL-28): > 100 µM (inactive)
GI50 (K562): 14.5 µM (inactive)
GI50 (CCRF-CEM): > 100 µM (inactive)
GI50 (SN12C): 65.3 µM (inactive)
GI50 (MDA-N): > 100 µM (inactive)
GI50 (SNB-19): 36.2 µM (inactive)
GI50 (DU-145): > 100 µM (inactive)
GI50 (U-251): 39.9 µM (inactive)
GI50 (OVCAR-3): > 100 µM (inactive)
GI50 (RXF 393): 35.2 µM (inactive)
GI50 (OVCAR-4): 48.1 µM (inactive)
GI50 (CAKI-1): 37.4 µM (inactive)
GI50 (MDA-MB-435): > 100 µM (inactive)
GI50 (UO-31): 24.9 µM (inactive)
GI50 (HL-60): > 100 µM (inactive)
GI50 (HT-29): 64.6 µM (inactive)
GI50 (MCF7): 83.2 µM (inactive)
GI50 (SR): > 100 µM (inactive)
GI50 (Malme-3M): > 100 µM (inactive)
GI50 (HCT-15): > 100 µM
GI50 (OVCAR-5): > 100 µM (inactive)
GI50 (SK-MEL-2): > 100 µM (inactive)
GI50 (SK-OV-3): 21.5 µM (inactive)
GI50 (OVCAR-8): 28.8 µM (inactive)
GI50 (HCT-116): 41.9 µM (inactive)

C=CC1(CC[C@]2(c3ccc(OC)c(OC)c3)C=[N+]([O-])O[C@H](O[C@@H]3CCCC[C@H]3C(C)(C)c3ccccc3)C2)OCC(C)(C)CO1
GI50 (EKVX): 12.7 µM (inactive)
GI50 (786-0): 11.9 µM (inactive)
GI50 (NCI-H522): 3.11 µM (inactive)
GI50 (HOP-62): 14.7 µM (inactive)
GI50 (ACHN): 16 µM (inactive)
GI50 (T47D): 11.6 µM (inactive)
GI50 (COLO 205): 16.9 µM (inactive)
GI50 (SF-539): 14.8 µM (inactive)
GI50 (MOLT-4): 3.78 µM (inactive)
GI50 (LOX IMVI): 10.5 µM (inactive)
GI50 (UACC-257): 18.8 µM (inactive)
GI50 (M14): 16.3 µM (inactive)
GI50 (NCI-H460): 16.5 µM (inactive)
GI50 (IGROV-1): 6.82 µM (inactive)
GI50 (A498): > 45 µM (inactive)
GI50 (NCI/ADR-RES): 10.7 µM (inactive)
GI50 (SW-620): 22.5 µM (inactive)
GI50 (KM12): 14.3 µM (inactive)
GI50 (SNB-75): 9.62 µM (inactive)
GI50 (NCI-H23): 16.2 µM (inactive)
GI50 (A549): 14.6 µM (inactive)
GI50 (HCC 2998): 16.1 µM (inactive)
GI50 (HOP-92): 13.5 µM (inactive)
GI50 (NCI-H226): 19.9 µM (inactive)
GI50 (MDA-MB-231): 13.5 µM (inactive)
GI50 (SF-295): 22.1 µM (inactive)
GI50 (BT-549): 21 µM (inactive)
GI50 (RPMI-8226): 2.34 µM (inactive)
GI50 (PC-3): 7.23 µM (inactive)
GI50 (SK-MEL-5): 14.7 µM (inactive)
GI50 (UACC-62): 14 µM (inactive)
GI50 (SK-MEL-28): 19.9 µM (inactive)
GI50 (K562): 8.17 µM (inactive)
GI50 (CCRF-CEM): 4.18 µM (inactive)
GI50 (SN12C): 10.8 µM (inactive)
GI50 (MDA-N): 6.11 µM (inactive)
GI50 (SNB-19): 21.9 µM (inactive)
GI50 (DU-145): 13.9 µM (inactive)
GI50 (TK-10): 25.4 µM (inactive)
GI50 (U-251): 20 µM (inactive)
GI50 (OVCAR-3): 6.59 µM (inactive)
GI50 (RXF 393): 12.4 µM (inactive)
GI50 (OVCAR-4): 11.3 µM (inactive)
GI50 (CAKI-1): 6.95 µM (inactive)
GI50 (MDA-MB-435): 11.5 µM (inactive)
GI50 (UO-31): 11.5 µM (inactive)
GI50 (HL-60): 1.97 µM (inactive)
GI50 (HT-29): 9.79 µM (inactive)
GI50 (MCF7): 3.65 µM (inactive)
GI50 (SR): > 19.9 µM (inactive)
GI50 (Malme-3M): 7.26 µM (inactive)
GI50 (HCT-15): 8.2 µM
GI50 (OVCAR-5): 16.4 µM (inactive)
GI50 (SK-MEL-2): 12.6 µM (inactive)
GI50 (SF-268): 7.13 µM (inactive)
GI50 (SK-OV-3): > 44.1 µM (inactive)
GI50 (OVCAR-8): 7.64 µM (inactive)
GI50 (HCT-116): 5.57 µM (inactive)
